In PubChem BioAssay (NCI):
“And” between values parts separate entries of the source, which are not always exact repeats. Equal values may be shown once.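 The compound was tested at five concentrations on cells cultured in 96-well plates, with a 48-hour exposure period. GI50 = concentration required for 50% inhibition of growth. TGI: total growth inhibition.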

How the values were obtained:
Experiment in all cases: growth of human tumour cells (NCI), 48 h
[1] = tested on: U251 CNS
[2] = tested on: MOLT-4 leukemia
[3] = tested on: NCI-H23 lung
[4] = tested on: HL-60(TB) leukemia
[5] = tested on: HS 578T breast
[6] = tested on: MDA-MB-435
[7] = tested on: MCF7 breast
[8] = tested on: SW-620 colon
[9] = tested on: BT-549 breast

SMILES	TGI [1]	TGI [2]	TGI [3]	TGI [4]	TGI [5]	TGI [6]	TGI [7]	TGI [8]	TGI [9]	GI50 [1]	GI50 [7]
O=C(O)/C=C/c1ccc2c(c1)CC1(Cc3ccccc3C1)C2	> 100 µM	> 100 µM	> 100 µM	90.5 µM	> 100 µM	> 100 µM	> 100 µM				
O=C(SCc1cccc2ccccc12)c1ccc(Cl)cc1	> 100 µM		> 100 µM	> 100 µM	> 100 µM	> 100 µM	> 100 µM	> 100 µM	> 100 µM		
OC1COC2CC(Nc3ccccn3)OC12 (centres undefined)	> 100 µM	> 100 µM	> 100 µM		> 100 µM	> 100 µM		> 100 µM	> 100 µM		
CC1=C(C)CC2(C=C(C(C)(C)C)C(=O)C(C(C)(C)C)=C2)SC1	29.9 µM	> 100 µM	57.1 µM	64.6 µM	36.8 µM	43.6 µM	36.6 µM	41.1 µM			
CN(CCc1ccccn1)C(=S)N/N=C(\c1ccccc1)c1ccccn1	> 36.6 µM	7.26 µM	4.26 µM	> 100 µM	> 26.4 µM	8.09 µM	> 100 µM	20.2 µM			
Cn1cc(S(=O)(=O)NC(=O)Nc2ccc(Cl)cc2)c(=O)c2ccc(F)cc21	> 100 µM	> 100 µM	> 100 µM	> 100 µM	> 100 µM	> 100 µM		> 100 µM			
CC(=O)OC1[C@H](OC(C)=O)C2=C(C)[C@@H](OC(C)=O)C[C@@]2(C(C)(C)O)[C@@H](OC(C)=O)[C@H]2[C@@]1(C)[C@@H](OC(C)=O)CC(OC(C)=O)[C@]21CO1 (some centres undefined)	> 100 µM	> 100 µM	> 100 µM	> 100 µM	> 100 µM	> 100 µM	> 100 µM	> 100 µM			
N/C1=C/C(=O)NC(=O)c2c(c3ccccc3oc2=O)C1	> 100 µM	> 100 µM	> 100 µM	> 100 µM	> 100 µM	> 100 µM		> 100 µM	> 100 µM		
C(=Nc1ccc(-c2nc3ccccc3s2)cc1)c1ccc[nH]1	27.7 µM	38.8 µM	37 µM	72.6 µM	53.4 µM	41 µM		53.8 µM	46.2 µM		
C=C1C(=O)O[C@H]2C[C@@H]1[C@@H](O)[C@H](O)[C@@H](C)CCCC(C)=CCC[C@@]2(C)O	64.5 µM	54.6 µM	42.7 µM	> 100 µM	43.9 µM	> 100 µM	26.5 µM		25.9 µM		
CCOC(=O)c1c(SC(=O)c2ccc(OC)cc2)n(-c2ccccc2)c(=S)n(-c2ccccc2)c1=O	> 100 µM	64 µM	> 100 µM	70.2 µM	> 100 µM	> 100 µM	> 100 µM	52.5 µM			
CC(C)C1=CC(=O)[C@@](C)(C2[C@H](O)C[C@@]3(C)[C@@H]4CC=C5[C@@H](CC[C@@H](OC6OCC(O)C(O)C6OC6OC(C)C(O)C(O)C6O)C5(C)C)[C@]4(C)C(=O)C[C@]23C)O1 (some centres undefined)	> 100 µM	> 100 µM	> 100 µM		> 100 µM	> 100 µM	> 100 µM	> 100 µM	> 100 µM		
CC(C)=CC(=O)c1[nH]c2ccccc2c1CC(=O)NCCc1cncn1C	> 100 µM	> 100 µM	> 100 µM		> 100 µM	> 100 µM	> 100 µM	> 100 µM	> 100 µM		
O=C(Nc1ccc(S(=O)(=O)/N=c2\ncccn2C(=O)C(C(F)(F)F)C(F)(F)F)cc1)C(C(F)(F)F)C(F)(F)F	> 100 µM	> 100 µM	> 100 µM	> 100 µM	> 100 µM	> 100 µM	> 100 µM				
CCOC(=O)C1(C#N)CC1	> 100 µM	> 100 µM	> 100 µM	> 100 µM	> 100 µM		> 100 µM	> 100 µM	> 100 µM		
COc1cc(-c2c3c(cc4c2OCO4)[C@@H](Nc2ccc(-c4ccc(-c5ccc(N[C@@H]6c7cc8c(cc7C(c7cc(OC)c(O)c(OC)c7)[C@H]7C(=O)OC[C@H]67)OCO8)cc5)cc4)cc2)[C@H]2COC(=O)[C@@H]2C3)cc(OC)c1O (some centres undefined)	10.1 µM		20.7 µM		> 100 µM	3.86 µM	12.1 µM	10.8 µM	6.76 µM		
COC1C(N(C)C)=C(c2ccccc2)C(=O)N2CCc3ccccc3C12 (centres undefined)	> 100 µM	> 100 µM	> 100 µM	> 100 µM	> 100 µM	> 100 µM	> 100 µM	> 100 µM			
O=c1[nH]c(NCc2ccc(Cl)cc2)nc2nc[nH]c12	> 100 µM	> 100 µM	> 100 µM		> 100 µM	> 100 µM	> 100 µM	> 100 µM	> 100 µM		
C[C@@H]1CC(=O)C[C@@H]2CC[C@H]3[C@@H]4CC[C@H](OC(=O)c5cccc6cc7ccccc7nc56)[C@H]4CC[C@@H]3[C@H]21	19.8 µM	31.7 µM	30.4 µM		> 100 µM	35.1 µM		44.2 µM	59.1 µM		
CN(C)c1ccc(/C=C/c2sc3ccccc3[n+]2C)cc1	13.8 µM and > 100 µM	0.957 µM and 1.31 µM	8.47 µM and 16.7 µM		36.8 µM and 46.1 µM	5.64 µM and 3.94 µM	17.6 µM and 7.41 µM			479 nM and 121 nM	3940 nM and 1460 nM
CC(C)(NC(=O)OCc1ccccc1)C(=O)OC(=O)C(C)(C)NC(=O)OCc1ccccc1	> 100 µM	> 100 µM	> 100 µM		> 100 µM	> 100 µM	> 100 µM	> 100 µM	> 100 µM		
C#CC(O)/C=C/CCCCCCC#CC/C=C\CC#CCCCCCCCCC(O)C#C (centres undefined)	> 55.8 µM		4.17 µM	3.71 µM	38.3 µM	7.43 µM	39.5 µM	14.2 µM	20.4 µM		
CCc1c(-c2ccc(OC)cc2)oc(OC)c(C)c1=O	> 100 µM	> 100 µM	> 100 µM		> 100 µM	> 100 µM	> 100 µM	> 100 µM	> 100 µM		
COc1ccc(C2C(=O)c3c(OC)cc(OC)cc3OC2c2cccnc2)cc1 (centres undefined)		> 100 µM	> 100 µM		> 100 µM	> 100 µM	> 100 µM	> 100 µM			
